A short description of series [1]: Phase 1 single- and multiple-dose study: safety and tolerability. It is filed as in vivo, human. As for the experimental part: (§1) General Design and Methodology: The purpose of this study is to assess the initial safety, tolerability, pharmacokinetics, and pharmacodynamics of Compound 1 (administered as Capsules of the hydrochloride salt of Compound 1) in healthy adults. […] Data from this study is used to select doses and dose regimens for subsequent clinical studies.
In Part 2, Panels are dosed sequentially.

The subject of another series is formalin-challenged rats. Nature of the series: Rat formalin paw test.
Series [2] concerns 2-AG. As to the kind of experiment: Mouse brain 2-AG concentrations after PO dose. The note with it: single-dose PO.
In the next series the target is MGLL (Canis lupus familiaris, UniProt A0A8I3PC77). Nature of the series: biochemical. As to the method: In vitro potency was determined using activity-based protein profiling (ABPP) which is a functional proteomic technology that uses chemical probes to covalently modify enzyme active sites in an activity-dependent manner (e.g., only catalytically active enzymes will react and become labeled with the ABPP probe). Identification of the proteins that were labeled by the probes was accomplished using polyacrylamide gel electrophoresis or mass spectrometry.

Series [3] is described as follows: Phase 1 single- and multiple-dose study: plasma pharmacokinetics. Type of series: in vivo. The settings on record: human, po, fasted; for AUC(0-inf): read-out: AUCinf (mean); for half-life: read-out: T1/2 (median) (converted).
Source text: as §1
There is a minimum 72-hour period between administration of study drug in Panels A and B. In addition, there is a minimum 2-week washout between Panel B Period 2 and Panel A Period 3 in order to evaluate available preliminary pharmacokinetic data along with safety and tolerability data from the preceding doses before proceeding with dosing in Periods 3 and 4. All doses are administered orally, together with approximately 240 mL of water. Water is otherwise restricted from 1 hour prior to, and for 1 hour after administration of study drug. In each treatment period, with the exception of Panel A Period 4 (food effect treatment period); study drug is administered after an overnight fast (for approximately 8 hours).
The allocation schedule for Periods 2 and 4 (fasted versus fed) are the same such that the same subjects receive active drug or matching placebo in the respective treatment periods.
PK: Descriptive statistics are provided by treatment (Part 1) and by treatment and day (Part 2). Minimum, median, maximum and CV are provided for all PK parameters. Arithmetic mean and standard deviation based on the raw scale are provided for AUC and Cmax. In addition, the percent CV of AUC and Cmax is also provided and calculated according to the following formula: 100×sqrt(exp(s2)−1), where s2 is the observed variance on the natural log-scale. Harmonic mean and jack-knife SD is provided for half-life. Time to steady-state, and evaluation of PK linearity are evaluated in an exploratory fashion.

The test system of series [4] is 2-AG. Nature of the series: Rat plasma 2-AG levels after single PO dose (LC-MS/MS). Type of series: in vivo. The note with it: single PO doses up to 30 mg/kg, 4 h. As for the experimental part: […]. MGLL activity was assessed by ABPP analysis in PBMC lysates and plasma 2-AG concentrations were measured by liquid chromatography tandem mass spectrometry (LC-MS/MS).

A short description of another series: in vivo. The settings on record: rat, po, 0.5 mg/kg.
Series [5] has as its system 2-AG. As to the kind of experiment: 2-AG and anandamide concentrations in rat tissues and plasma after oral dose. Type of series: in vivo. From the text: MGLL target engagement inhibits the hydrolysis of 2-AG, elevating tissue 2-AG concentrations, which can be measured in rodent tissues and fluids by MS. Elevation of 2-AG results in enhanced cannabinoid receptor signaling and physiological responses.
Inhibition of MGLL causes accumulation of 2-AG in the rodent brain and periphery.

[6] abbreviates: Panel C (10 mg QD×14 days) or Panel D (20 mg QD×14 days).
The mark [7] stands for this setting: 100 mg, single oral dose 100 mg, Panel A, Period 3 (A3).
The mark [8] stands for this setting: 100 mg, single oral dose 100 mg, Panel B, Period 4 (B4).
Where [9] appears, read: 200 mg, single oral dose 200 mg.

SMILES strings stand for the structures. Where a name gives a salt, the structure may show the parent alone. Read-outs that look alike come from different tables or passages of the source.

MGLL, sequence (A0A8I3PC77 1-304): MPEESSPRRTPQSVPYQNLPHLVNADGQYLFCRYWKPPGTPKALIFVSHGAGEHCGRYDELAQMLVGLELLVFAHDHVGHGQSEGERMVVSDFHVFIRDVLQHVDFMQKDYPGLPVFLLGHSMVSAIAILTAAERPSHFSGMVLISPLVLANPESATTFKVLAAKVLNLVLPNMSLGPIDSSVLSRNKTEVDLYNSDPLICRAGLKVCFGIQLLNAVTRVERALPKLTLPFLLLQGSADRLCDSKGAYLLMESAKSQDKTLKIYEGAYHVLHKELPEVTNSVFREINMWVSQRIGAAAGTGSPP

As for `O=C(OC(C(F)(F)F)C(F)(F)F)N1CCN(Cc2ccc(C(F)(F)F)cc2N2CCCC2)CC1` [Compound 1 HCl, 1,1,1,3,3,3-hexafluoropropan-2-yl 4-(2-(pyrrolidin-1-yl)-4-(trifluoromethyl)benzyl)piperazine-1-carboxylate], in series [1] (setting [6]), the “adverse events leading to discontinuation” value is “no adverse events leading to the discontinuation of any subjects” and the “changes in vital signs, laboratory test values, or ECGs” value is “no clinically significant changes”. The “vital sign, safety laboratory, or electrocardiographic findings” value in series [1] (healthy male subjects, fasting state, single oral doses up to 200 mg) is given as “not associated with any vital sign, safety laboratory, or electrocardiographic findings of note”.

The term IC50 denotes the concentration that inhibits the measured activity by half. Read a high IC50 as weaker potency in that assay. By Cmax is commonly meant the highest concentration seen after dosing. A word on the Tmax: it is the time from dosing to the highest level. `O=C(OC(C(F)(F)F)C(F)(F)F)N1CCN(Cc2ccc(C(F)(F)F)cc2N2CCCC2)CC1` [Compound 1, 1,1,1,3,3,3-hexafluoropropan-2-yl 4-(2-(pyrrolidin-1-yl)-4-(trifluoromethyl)benzyl)piperazine-1-carboxylate]: the “effect of single and repeated administration on pain behaviors” value in the series on formalin-challenged rats (1 mg/kg, single vs 5 days QD, n=10, repeat dose group not statistically different from vehicle) is reported as “numerically reduced pain behaviors to a similar extent”. In the series on formalin-challenged rats (rat formalin nocifensive model), the “ED50 for exposure associated with efficacy” value turned out to be 0.4 µM·h. In addition, the “overt behavioral or locomotor perturbations” value in the series on formalin-challenged rats (rats, at the ED50 dose and at oral doses 20-fold higher) is reported as “not apparent”. Also, in the series with formalin-challenged rats (single dose PO, 4 hours pre-test, n=10), the “Phase 2 ED50, paw licking behavior” value stood at 0.5 mg/kg. Also, in the series with formalin-challenged rats (single dose up to 10 mg/kg PO, 4 hours pre-test, early (Phase 1) and delayed (Phase 2) phases), the “effect on nociception in formalin-challenged rats” value is listed as “dose-dependent antinociceptive effects”. Also, in the series on 2-AG [2], the “increase of brain 2-AG concentrations” value is given as “up to 30 fold”. The IC50 was 12 ± 2 nM on MGLL (MGLL IC50, Dog Prefrontal Cortex, 30 min pre-incubation at 37° C., mean ± SEM, n = 3) and less than 30 nM on MGLL (MGLL IC50, dog MGLL, summary statement for all species). Moreover, the Cmax in series [3] (2 mg, single oral dose 2 mg) worked out at 2.9 ng/mL; in series [3] (6 mg, single oral dose 6 mg), 10.2 ng/mL; in series [3] (18 mg, single oral dose 18 mg), 23.5 ng/mL; in series [3] (50 mg, single oral dose 50 mg) it was 59.8 ng/mL; in series [3] (setting [7]), 45.7 ng/mL; in series [3] (setting [8]) it was 76 ng/mL. Also, in series [3] (setting [9]), the concentration peaked (Cmax) at 109 ng/mL. Moreover, the Tmax in series [3] (2 mg, single oral dose 2 mg) was determined as 1.5 h; in series [3] (6 mg, single oral dose 6 mg), 1.67 h; in series [3] (18 mg, single oral dose 18 mg), 2 h; in series [3] (50 mg, single oral dose 50 mg) it was 1.8 h; in series [3] (setting [7]), 3.17 h; in series [3] (setting [8]) it was 1.83 h. The time to peak (Tmax) in series [3] (setting [9]) amounted to 3 h. In addition, the AUC(0-inf) in series [3] (2 mg, single oral dose 2 mg) turned out to be 15.9 ng·h/mL; in series [3] (6 mg, single oral dose 6 mg), 47 ng·h/mL; in series [3] (18 mg, single oral dose 18 mg), 109 ng·h/mL; in series [3] (50 mg, single oral dose 50 mg), 296 ng·h/mL; in series [3] (setting [7]), 289 ng·h/mL; in series [3] (setting [8]), 512 ng·h/mL. Also, the AUC(0-inf) in series [3] (setting [9]) was 766 ng·h/mL. The half-life in series [3] (2 mg, single oral dose 2 mg) was 1.51 h; in series [3] (6 mg, single oral dose 6 mg), 2.23 h; in series [3] (18 mg, single oral dose 18 mg), 3.02 h; in series [3] (50 mg, single oral dose 50 mg), 3.44 h; in series [3] (setting [7]) it was 5.82 h; in series [3] (setting [8]) it was 3.76 h. In addition, the half-life in series [3] (setting [9]) is 3.61 h. Also, the “increase of plasma 2-AG levels” value with 2-AG [4] was “up to 7 fold”. In addition, the concentration at 4 h in the series “in vivo” (blood) worked out at 7 nM; in the series “in vivo” (brain) it was 5 nM. The “elevation in brain 2-AG concentrations at the Phase 2 ED50” value in the series on 2-AG [5] (rat formalin model, 0.5 mg/kg PO) is “approximately 3 fold”. Besides, the “brain levels of the endocannabinoid anandamide” value in the series with 2-AG [5] (rat, single oral doses) is given as “not elevated”. Further, the “increase of 2-AG concentration in plasma” value with 2-AG [5] (rat, single oral doses) is 7 fold. Moreover, in the series on 2-AG [5] (rat, single oral doses up to 30 mg/kg, 4 hours, read-out: ED50 for increase of brain 2-AG concentrations (average)), the ED50 was determined as 1.3 mg/kg.

Values taken from patent publication US11034674B2, “Methods of treating inflammation or neuropathic pain” (H. Lundbeck A/S, priority 2015, dated 2021).
